Reference: patent US9029359B2, “Heteroaryl Btk inhibitors” (Biogen Idec MA, Inc., priority 2009, dated 2015)

Molecular target: T1, BTK (Homo sapiens, UniProt Q06187)
T1 construct: purchased Upstate 14-552
Assay: In vitro BTK kinase assay: BTK-POLYGAT-LS ASSAY
Type: biochemical
Conditions: ATP 10 uM
Experimental: In vitro BTK kinase assay: BTK-POLYGAT-LS ASSAY. The purpose of the BTK in vitro assay is to determine compound potency against BTK through the measurement of IC50. […] A 24 μL aliquot of a ATP/peptide master mix (final concentration; ATP 10 μM, polyGAT 100 nM) in kinase buffer (10 mM Tris-HCl pH 7.5, 10 mM MgCl2, 200 μM Na3VO4, 5 mM DTT, 0.01% Triton X-100, and 0.2 mg/ml Casein) is added to each well. […] The assay is incubated for 30 minutes before being stopped with 28 μL of a 50 mM EDTA solution. […] The plate is covered and incubated for 45 minutes at room temperature. Time resolved fluorescence (TRF) on Molecular Devices M5 (332 nm excitation; 488 nm emission; 518 nm fluorescein emission) is measured.

T1 sequence (Q06187 whole entry): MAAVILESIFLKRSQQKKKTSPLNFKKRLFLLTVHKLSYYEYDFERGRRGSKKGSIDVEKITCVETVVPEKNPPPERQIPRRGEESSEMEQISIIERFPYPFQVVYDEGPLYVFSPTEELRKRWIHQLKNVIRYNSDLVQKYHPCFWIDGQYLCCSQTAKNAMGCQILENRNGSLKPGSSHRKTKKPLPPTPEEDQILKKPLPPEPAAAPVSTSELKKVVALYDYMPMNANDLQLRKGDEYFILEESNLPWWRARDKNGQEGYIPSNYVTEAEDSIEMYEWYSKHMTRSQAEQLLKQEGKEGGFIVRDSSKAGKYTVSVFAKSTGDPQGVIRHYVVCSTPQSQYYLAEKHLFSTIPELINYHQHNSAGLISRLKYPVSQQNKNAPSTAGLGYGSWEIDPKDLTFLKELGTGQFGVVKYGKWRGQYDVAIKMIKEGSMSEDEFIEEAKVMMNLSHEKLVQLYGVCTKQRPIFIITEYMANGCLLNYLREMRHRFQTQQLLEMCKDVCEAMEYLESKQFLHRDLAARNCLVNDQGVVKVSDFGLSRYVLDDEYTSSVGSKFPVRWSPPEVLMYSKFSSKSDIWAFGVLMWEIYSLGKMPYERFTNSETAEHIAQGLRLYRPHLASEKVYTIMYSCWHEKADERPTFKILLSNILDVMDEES

| IC50 [nM] | Structure (SMILES) |
| --- | --- |
| 100 to 999 | O=C(CNc1cccc2ccccc12)N[C@@H]1CCCN(c2ncnc3[nH]ccc23)C1 [Example 274] |
| < 100 | CC(C)(C)C1CCN(S(=O)(=O)c2ccccc2NCC(=O)N[C@@H]2CCCN(c3ncnc4[nH]ncc34)C2)CC1 [Example 256] |
| < 100 | O=C(CNc1ccccc1S(=O)(=O)N1CCOCC1)N[C@@H]1CCCN(c2ncnc3[nH]ccc23)C1 [Example 243] |
| < 100 | CCC[C@@H](Nc1cc(F)cc(Cl)c1)C(=O)N[C@@H]1CCCN(c2ncnc3[nH]ncc23)C1 [Example 168] |
| > 10000 | CNC(=O)c1cccc(NCC(=O)NC2CCCN(c3ncnc4[nH]ccc34)C2)c1 (stereo not shown) [Example 339] |
| < 100 | C[C@H](O)[C@@H](Nc1cc(Cl)cc(Cl)c1)C(=O)N[C@@H]1CCCN(c2ncnc3[nH]ncc23)C1 [Example 165] |
| 100 to 999 | O=C(CNc1cc(F)ccc1F)N[C@@H]1CCCN(c2ncnc3[nH]ccc23)C1 [Example 446] |
| 100 to 999 | O=C(CNc1cc(C(F)(F)F)cc(C(F)(F)F)c1)N[C@@H]1CCCN(c2ncnc3[nH]ccc23)C1 [Example 308] |
| 100 to 999 | O=C(CNc1ccccc1)N(CCc1ccccc1)C1CCCN(c2ncnc3[nH]ccc23)C1 (stereo not shown) [Example 87, (N-(1-(7H-pyrrolo[2,3-d]pyrimidin-4-yl)piperidin-3-yl)-N-phenethyl-2-(phenylamino)acetamide)] |
| < 100 | O=C(CNc1cccc(Cl)c1)N[C@@H]1CCCN(c2ncnc3[nH]ncc23)C1 [Example 247] |
| < 100 | O=C(CNc1ccccc1Sc1ccccc1)N[C@@H]1CCCN(c2ncnc3[nH]ccc23)C1 [Example 194] |
| 1000 to 10000 | O=C(CNc1cccc2cn[nH]c12)NC1CCCN(c2ncnc3[nH]ccc23)C1 (stereo not shown) [Example 75] |
| < 100 | CC[C@@H](Nc1cc(Cl)cc(Cl)c1)C(=O)N[C@@H]1CCCN(c2ncnc3[nH]ncc23)C1 [Example 130, (R)—N—((R)-1-(1H-pyrazolo[3,4-d]pyrimidin-4-yl)piperidin-3-yl)-2-(3,5-dichlorophenylamino)butanamide] |
| > 10000 | O=C(CNc1cccc2ncccc12)NC1CCCN(c2ncnc3[nH]ccc23)C1 (stereo not shown) [Example 332] |
| 100 to 999 | CC(C)(O)[C@@H](Nc1cc(F)cc(Cl)c1)C(=O)N[C@@H]1CCCN(c2ncnc3[nH]ccc23)C1 [Example 296] |
| 1000 to 10000 | O=C(Cc1ccccc1)NCC(=O)NC1CCCN(c2ncnc3[nH]ccc23)C1 (stereo not shown) [Example 96, (N-(1-(7H-pyrrolo[2,3-d]pyrimidin-4-yl)piperidin-3-yl)-2-(2-phenylacetamido)acetamide)] |
| 1000 to 10000 | O=C(CNc1ccc(F)cc1)NC1CCCN(c2ncnc3[nH]ccc23)C1 (stereo not shown) [Example 33, (N-(1-(7H-pyrrolo[2,3-d]pyrimidin-4-yl)piperidin-3-yl)-2-(4-fluorophenylamino)acetamide)] |
| 100 to 999 | Cc1cc(C)cc(NCC(=O)N[C@@H]2CCCN(c3ncnc4[nH]ccc34)C2)c1 [Example 282] |
| 100 to 999 | O=C(CNC(=O)c1ccccc1)NC1CCCN(c2ncnc3[nH]ccc23)C1 (stereo not shown) [Example 3, (N-(2-(1-(7H-pyrrolo[2,3-d]pyrimidin-4-yl)piperidin-3-ylamino)-2-oxoethyl)benzamide)] |
| > 10000 | O=C(CNc1ccccc1)NC1CCCN(c2ncnc3[nH]cnc23)C1 (stereo not shown) [Example 464] |
| < 100 | O=C(CNc1cc(F)cc(C(F)(F)F)c1)NC1CCCN(c2ncnc3[nH]ccc23)C1 (stereo not shown) [Example 63, (N-(1-(7H-pyrrolo[2,3-d]pyrimidin-4-yl)piperidin-3-yl)-2-(3-fluoro-5-(trifluoromethyl)phenylamino)acetamide)] |
| < 100 | CCC[C@@H](Nc1cc(F)cc(Cl)c1)C(=O)N[C@@H]1CCCN(c2ncnc3[nH]ccc23)C1 [Example 197] |
| 100 to 999 | O=C(N[C@@H]1CCCN(c2ncnc3[nH]cc(F)c23)C1)[C@H](Nc1cc(F)cc(Cl)c1)C1CC1 [Example 138, (R)-2-(3-chloro-5-fluorophenylamino)-2-cyclopropyl-N—((R)-1-(5-fluoro-7H-pyrrolo[2,3-d]pyrimidin-4-yl)piperidin-3-yl)acetamide] |
| < 100 | O=C(CNc1ccccc1S(=O)(=O)c1ccccc1)N[C@@H]1CCCN(c2ncnc3[nH]ncc23)C1 [Example 163] |
| < 100 | O=C(CNc1ccccc1OCCc1ccccc1)N[C@@H]1CCCN(c2ncnc3[nH]ccc23)C1 [Example 221] |
| > 10000 | O=C(CNC1CCCc2ccccc21)NC1CCCN(c2ncnc3[nH]ccc23)C1 (stereo not shown) [Example 356] |
| 1000 to 10000 | O=C(CNc1cccc(O)c1)N[C@@H]1CCCN(c2ncnc3[nH]ccc23)C1 [Example 401] |
| < 100 | O=C(CNc1ccccc1S(=O)(=O)N1CCCCC1)NC1CCCCN(c2ncnc3[nH]ncc23)C1 (stereo not shown) [Example 170] |

| IC50 [nM] | Structure (SMILES) |
| --- | --- |
| 100 to 999 | Cc1cccc(NCC(=O)N[C@@H]2CCCN(c3ncnc4[nH]ccc34)C2)c1C [Example 292] |
| > 10000 | N#Cc1ccc(NCC(=O)NC2CCCN(c3ncnc4[nH]ccc34)C2)cc1C(F)(F)F (stereo not shown) [Example 73, (N-(1-(7H-pyrrolo[2,3-d]pyrimidin-4-yl)piperidin-3-yl)-2-(4-cyano-3-(trifluoromethyl)phenylamino)acetamide)] |
| 100 to 999 | O=C(CNc1ccc(F)cc1F)NC1CCCN(c2ncnc3[nH]ccc23)C1 (stereo not shown) [Example 67, (N-(1-(7H-pyrrolo[2,3-d]pyrimidin-4-yl)piperidin-3-yl)-2-(2,4-difluorophenylamino)acetamide)] |
| 100 to 999 | O=C(CNc1cc(F)c(F)c(F)c1)N[C@@H]1CCCN(c2ncnc3[nH]ccc23)C1 [Example 285] |
| > 10000 | Cn1nc(-c2ccccc2)cc1NCC(=O)NC1CCCN(c2ncnc3[nH]ccc23)C1 (stereo not shown) [Example 351] |
| 1000 to 10000 | CS(=O)(=O)c1cccc(NCC(=O)NC2CCCN(c3ncnc4[nH]ccc34)C2)c1 (stereo not shown) [Example 28, (N-(1-(7H-pyrrolo[2,3-d]pyrimidin-4-yl)piperidin-3-yl)-2-(3-(methylsulfonyl)phenylamino)acetamide)] |
| 100 to 999 | O=C(CNC(=O)c1cccc2ccccc12)NC1CCCN(c2ncnc3[nH]ccc23)C1 (stereo not shown) [Example 97, (N-(2-(1-(7H-pyrrolo[2,3-d]pyrimidin-4-yl)piperidin-3-ylamino)-2-oxoethyl)-1-naphthamide)] |
| < 100 | Cc1ccc(F)cc1NCC(=O)N[C@@H]1CCCN(c2ncnc3[nH]ccc23)C1 [Example 273] |
| < 100 | C[C@@H](O)[C@@H](Nc1cc(F)cc(Cl)c1)C(=O)N[C@@H]1CCCN(c2ncnc3[nH]ncc23)C1 [Example 171] |
| 1000 to 10000 | O=C(CNc1cccc(C(F)(F)F)n1)NC1CCCN(c2ncnc3[nH]ccc23)C1 (stereo not shown) [Example 334] |
| < 100 | C[C@@H](Nc1cc(F)cc(Cl)c1)C(=O)N[C@@H]1CCCN(c2ncnc3[nH]ccc23)C1 [Example 232] |
| < 100 | CN(C1CCCCC1)S(=O)(=O)c1ccccc1NCC(=O)N[C@@H]1CCCN(c2ncnc3[nH]ncc23)C1 [Example 240] |
| < 100 | CCC[C@@H](Nc1cccc(Cl)c1)C(=O)N[C@@H]1CCCN(c2ncnc3[nH]ccc23)C1 [Example 215] |
| 100 to 999 | CC(C)[C@@H](Nc1ccccc1)C(=O)N[C@@H]1CCCN(c2ncnc3[nH]ccc23)C1 [Example 103, (R)—N—((R)-1-(7H-pyrrolo[2,3-d]pyrimidin-4-yl)piperidin-3-yl)-3-methyl-2-(phenylamino)butanamide] |
| 1000 to 10000 | Cc1cc(C)c(NCC(=O)N[C@@H]2CCCN(c3ncnc4[nH]ccc34)C2)c(C)c1 [Example 428] |
| < 100 | CCC[C@@H](Nc1cc(Cl)cc(Cl)c1)C(=O)N[C@@H]1CCCN(c2ncnc3[nH]ncc23)C1 [Example 166] |
| 1000 to 10000 | O=C(CNc1c(F)cc(F)cc1F)N[C@@H]1CCCN(c2ncnc3[nH]ccc23)C1 [Example 438] |
| 100 to 999 | O=C(CNc1ccc(Cl)cc1)NC1CCCN(c2ncnc3[nH]ccc23)C1 (stereo not shown) [Example 22, (N-(1-(7H-pyrrolo[2,3-d]pyrimidin-4-yl)piperidin-3-yl)-2-(4-chlorophenylamino)acetamide)] |
| 100 to 999 | COc1ccc(Cl)cc1NCC(=O)N[C@@H]1CCCN(c2ncnc3[nH]ccc23)C1 [Example 312] |
| > 10000 | O=C(CNC1CCc2ccccc21)NC1CCCN(c2ncnc3[nH]ccc23)C1 (stereo not shown) [Example 355] |
| 1000 to 10000 | CC(C)(Nc1ccccc1)C(=O)N[C@@H]1CCCN(c2ncnc3[nH]ccc23)C1 [Example 128, (R)—N-(1-(7H-pyrrolo[2,3-d]pyrimidin-4-yl)piperidin-3-yl)-2-methyl-2-(phenylamino)propanamide] |
| 100 to 999 | CC[C@H](C)[C@@H](Nc1ccccc1)C(=O)N[C@@H]1CCCN(c2ncnc3[nH]ccc23)C1 [Example 115, (2R,3S)—N—((R)-1-(7H-pyrrolo[2,3-d]pyrimidin-4-yl)piperidin-3-yl)-3-methyl-2-(phenylamino)pentanamide] |
| 1000 to 10000 | CC(C)(C)c1ccccc1NCC(=O)N[C@@H]1CCCN(c2ncnc3[nH]ccc23)C1 [Example 416] |
| 100 to 999 | CC1CN(S(=O)(=O)c2ccccc2NCC(=O)N[C@@H]2CCCN(c3ncnc4[nH]ncc34)C2)CC(C)O1 (stereo partly shown) [Example 372] |
| > 10000 | O=C(CNc1cccc(N2CCNC2=O)c1)NC1CCCN(c2ncnc3[nH]ccc23)C1 (stereo not shown) [Example 337] |
| < 100 | O=C(N[C@@H]1CCCN(c2ncnc3[nH]ccc23)C1)[C@H](Nc1ccccc1)C1CC1 [Example 107, (R)—N—((R)-1-(7H-pyrrolo[2,3-d]pyrimidin-4-yl)piperidin-3-yl)-2-cyclopropyl-2-(phenylamino)acetamide] |
| < 100 | CC(C)(C)[C@@H](Nc1cc(F)cc(Cl)c1)C(=O)N[C@@H]1CCCN(c2ncnc3[nH]ncc23)C1 [Example 200] |
